Converted amounts (≈) assume the structure as drawn. Where two headings read alike, the source gives them in different places.
Key:
[1] = tested on: lens induction myopia (LIM, −4D lens) guinea pig model; assay: lens induction myopia (LIM) guinea pig model, injection around the eyeball; type: in vivo
Description: The form deprivation and lens-induced guinea pig myopia model is a classic and recognized myopia animal model in the field. The model can be used to evaluate the efficacy and safety of drugs for treating myopia. The construction method of the model is well known to those skilled in the art. The animal modeling and administration route in this application refer to the scientific literature previously published by this research group (Sen Zhang, Invest Ophthalmol Vis Sci. 2019 Jul. 1; 60(8):3074-3083.; Miaozhen Pan, Exp Eye Res. 2021 January; 202:108332.), specifically, this application uses the following exemplary construction method of the form deprivation and lens-induced guinea pig myopia model:
(§1) three-week-old tricolor guinea pigs (both male and female, simulating humans aged 3-26 years old) were used and raised in the experimental animal room of Wenzhou Medical University in a 12-hour light (400-500 lux)/12-hour dark environment with free access to water and food. The myopia model adopted monocular form deprivation (FD) and lens induction (LI) modeling methods. […] In the lens induction group, a −4D lens was fixed in front of the right eye of the animal, and the left eye obtained normal vision. For the above animals, the lenses were cleaned twice a day to prevent the lenses from blurring. The animals in the experimental group were administrated at 9:00-9:30 am every day. […] The administration process for each animal was controlled in about 10 seconds. Administration began on the day of modeling, and was continuous for 2 weeks for the form deprivation group and was continuous for 1 week for the lens induction group. This experiment has been reviewed by the Experimental Animal Ethics Committee of Wenzhou Medical University.
The inventors prepared a 5 μM (i.e., 1.75 μg/mL) vinpocetine stock solution and stored at −80° C. The solvent was physiological saline. Before administration experiment, the stock solution was diluted with physiological saline to 1 μM, 0.1 μM, and 0.01 μM, respectively. During the formulation process of vinpocetine eye drops, the solubility can be increased by using conventional physical methods such as heating and stirring, or acids can also be used to adjust the PH value to increase solubility, and finally, the PH value can be adjusted to 7.31.
2. Lens induction plus drug injection group: • wearing a −4D lens on one eye and injecting vinpocetine (0.01 μM: 0.1 mL/day) into the eye wearing the −4D lens for 1 weeks, sample size=12; • wearing a −4D lens on one eye and injecting vinpocetine (0.1 μM: 0.1 mL/day) into the eye wearing the −4D lens for 1 weeks, sample size=12; • wearing a −4D lens on one eye and injecting vinpocetine (1.00 μM 0.1 mL/day) into the eye wearing the −4D lens for 1 weeks, sample size=13; • 3.
All animals in the same model efficacy experiment were measured within the same time period, and the first measurement was at 3 weeks of age, that is, before drug administration. Refractions and eyeball parameters were measured for the animals in the above FDM group before the experiment, after 1 week of administration in the experiment and after 2 weeks of administration in the experiment and for the animals in the LIM group before the experiment, after 3 days of administration in the experiment and after 7 days of administration in the experiment, respectively. The refractions were measured using an eccentric infrared photoretinoscope (EIR) built in our laboratory. Each eye was measured three times and the average was taken as the final result. The axial parameters of the guinea pig's eyeballs were measured using the A-ultrasound probe in the CinescanA/B ultrasonic diagnostic instrument (QuantelMedical, Aviso, France). The ultrasonic frequency was 11 MHz. The ultrasonic propagation speeds of different refractive media of the eyeball were set as: 1557.5 m/s for the anterior chamber, 1723.3 m/s for the lens, and 1540 m/s for the vitreous body.

[2] = tested on: choroid of FDM guinea pigs; assay: choroidal thickness and blood flow by OCTA, FDM group; type: in vivo, guinea pig
Method: The choroidal blood flow parameters and choroidal thickness were measured for the animals in the above FDM group after 1 week of continuous administration and at the end of the 2 week-administration experiment and for the animals in the LIM group at the end of the 7 day-administration experiment. Choroidal blood flow parameters and thickness were measured using a modified commercial OCTA (Spectralis HRA+OCT, OCTA, Heidelberg, Germany) which is more suitable for animal eyeballs. Before the measurement, the guinea pigs were fully anesthetized (a mixture of ketamine hydrochloride 60 mg/kg and xylazine hydrochloride 9 mg/kg, intraperitoneally injected), and then the guinea pig OCTA images were obtained, and the measurement results were quantified through a self-written program (MatLab R2017a, MathWorks). Real-time quantitative detection of choroidal blood flow and thickness in guinea pigs was achieved (Sen Zhang, Invest Ophthalmol Vis Sci. 2019 Jul. 1; 60(8):3074-3083).
Vinpocetine is known to improve blood circulation. The inventors used the method of example 1 to detect changes of indicator signals of choroidal thickness ChT and choroidal blood flow ChBP of FDM (1 week and 2 weeks of administration) and LIM (1 week of administration) at different time points during the administration cycle.

guinea pigs = assay: safety observation during local administration to young guinea pigs; type: in vivo, guinea pig
Description: as §1

[3] = cited from earlier work
rats = conditions: rat, in vivo, cited from earlier work
rabbits = conditions: rabbit, in vivo, cited from earlier work

CCOC(=O)C1=C[C@]2(CC)CCCN3CCc4c(n1c1ccccc41)[C@@H]32 [vinpocetine]
effect of myopia treatment compared with the negative control group ([1]; high-, medium- and low-concentration vinpocetine (1, 0.1, 0.01 μM), 3 days): showed the effect of myopia treatment | refraction difference between the experimental eye and the contralateral eye ([1]; vinpocetine 1 μM 0.1 mL/day peribulbar injection, 3 days): −2.00±0.82 D | axial length difference between the experimental eye and the contralateral eye ([1]; vinpocetine 1 μM, 3 days): 0.04±0.02 mm | inhibition rate for the axial length ([1]; vinpocetine 1 μM, 3 days): 55.5% | inhibition rate for the vitreous chamber depth ([1]; vinpocetine 1 μM, 3 days): 58.8% | refraction inhibition rate ([1]; vinpocetine 1 μM, 3 days): 38.5% | vitreous chamber depth difference between the experimental eye and the contralateral eye ([1]; vinpocetine 1 μM, 3 days): 0.03±0.03 mm | axial length difference between the experimental eye and the contralateral eye ([1]; vinpocetine 1 μM, 7 days): 0.05±0.02 mm | inhibition rate for the axial length ([1]; vinpocetine 1 μM, 7 days): 53.8% | inhibition rate for the vitreous chamber depth ([1]; vinpocetine 1 μM, 7 days): 49.8% | refraction difference between the experimental eye and the contralateral eye ([1]; vinpocetine 1 μM, 7 days): −2.61±1.17 D | refraction inhibition rate ([1]; vinpocetine 1 μM, 7 days): 36.3% | vitreous chamber depth difference between the experimental eye and the contralateral eye ([1]; vinpocetine 1 μM, 7 days): 0.05±0.02 mm | choroidal thickness ChT ([2]; 1 and 2 weeks, vs solvent injection group, not statistically significant): only slightly increased | choroidal blood perfusion ChBP ([2]; 1 and 2 weeks, vs solvent injection group, p=0.285): only slightly increased | effect on choroidal vasodilation compared with atropine ([2]; vinpocetine 0.1 μM, 2 weeks): not as good as atropine | improvement of choroidal blood flow among vinpocetine concentrations ([2]; vinpocetine 1 μM, 1 week): least effective at improving choroidal blood flow | common clinical adverse reactions or toxic manifestations such as weight loss (guinea pigs; guinea pig, in vivo): no individual was observed to have common clinical adverse reactions or toxic manifestations | allergic phenomenon (guinea pigs; local administration of vinpocetine): no allergic phenomenon | changes in the pupil size of the test eyes (guinea pigs; local administration of vinpocetine to young guinea pigs): No significant changes | ocular abnormalities (guinea pigs; vinpocetine group, local administration): No ocular abnormalities | solubility in water [3]: almost insoluble in water | solubility in 0.5% methylcellulose ([3]; room temperature): 200 mg/mL (≈ 571 mM) | solubility in water ([3]; room temperature): 0.0024 mg/mL (≈ 0.00685 mM) | toxicity findings (rats; 20 mg/kg/day): no obvious abnormality | toxicity findings (rats; 40 mg/kg): signs of weight loss and food intake reduction | LD50 (rats; po): approximately 500 mg/kg | toxicity findings (rabbits; 75 mg/kg/day): without any obvious abnormalities | toxicity findings (rabbits; 150 mg/kg): toxic effects of weight loss and food intake reduction

From patent US20240165089A1, “METHOD FOR TREATING MYOPIA WITH VINPOCETINE” (EYE HOSPITAL, WENZHOU MEDICAL UNIVERSITY, priority 2021, published 2024)
